The experiment concerns the target T1, human CRF receptors (Homo sapiens, UniProt P34998).
T1 construct: expressed in transfected cells
T1 sequence (P34998 24-415): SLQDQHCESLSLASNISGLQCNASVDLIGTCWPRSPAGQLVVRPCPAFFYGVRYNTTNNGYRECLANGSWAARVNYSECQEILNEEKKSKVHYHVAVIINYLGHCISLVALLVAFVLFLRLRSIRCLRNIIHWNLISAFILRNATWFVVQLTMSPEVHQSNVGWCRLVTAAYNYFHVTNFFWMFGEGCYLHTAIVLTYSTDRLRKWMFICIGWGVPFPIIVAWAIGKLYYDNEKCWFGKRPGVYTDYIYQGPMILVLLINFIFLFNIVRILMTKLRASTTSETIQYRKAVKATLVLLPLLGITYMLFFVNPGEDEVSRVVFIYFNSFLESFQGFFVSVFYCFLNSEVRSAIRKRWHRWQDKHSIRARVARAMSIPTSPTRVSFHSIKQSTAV
The experiment is described as follows: CRF receptor binding activity (radioligand displacement, Example 25). The source says: The effectiveness of a compound as a CRF receptor antagonist may be determined by various assay methods. […] CRF receptor affinity may be determined by binding studies that measure the ability of a compound to inhibit the binding of a radiolabeled CRF (e.g., [^125I]tyrosine-CFR) to its receptor (e.g., receptors prepared from rat cerebral cortex membranes). The radioligand binding assay described by DeSouza et al. (supra, 1987) provides an assay for determining a compound's affinity for the CRF receptor.
[formula] where L=radioligand and KD=affinity of radioligand for receptor (Cheng and Prusoff, Biochem. Pharmacol. 22:3099, 1973).
By utilizing radiolabeled CRF ligands, the assay may be used to evaluate the binding activity of the compounds of the present invention with any CRF receptor subtype.
Briefly, the binding assay involves the displacement of a radiolabeled CRF ligand from the CRF receptor. More specifically, the binding assay is performed in 96-well assay plates using 1-10 μg cell membranes from cells stably transfected with human CRF receptors. […] The mixture is incubated for 2 hours at 22° C. followed by separation of the bound and free radioligand by rapid filtration over glass fiber filters. Following three washes, the filters are dried and radioactivity (Auger electrons from ^125I) is counted using a scintillation counter. All radioligand binding data may be analyzed using the non-linear least-squares curve-fitting programs Prism (GraphPad Software Inc) or XLfit (ID Business Solutions Ltd).
Background: Loss of bound radioactivity is the signal in a displacement assay; it reports binding, not function.

[1] abbreviates: displacement of [125I] tyrosine-sauvagine from membranes of cells stably transfected with human CRF receptors, less than 0.10 μM (i.e., 100 nM), read-out: Ki (CRF receptor binding affinity).

Like-named read-outs stand apart in the source and are kept apart here.

Turning to `CCC(Nc1cc(C)nc2c(-c3ccc(OC)cc3C)c(C)nn12)c1nc(C2CC2)no1` (stereo not drawn) [Example 11-1, [1-(3-Cyclopropyl-[1,2,4]oxadiazol-5-yl)-propyl]-[3-(4-methoxy-2-methyl-phenyl)-2,5-dimethyl-pyrazolo[1,5-a]pyrimidin-7-yl]-amine], the Ki under setting [1] was less than 100 nM.

Regarding `COc1ccc(-c2c(C)nn3c(NC(Cc4ccccc4)c4nc(C)no4)cc(C)nc23)c(C)c1` (stereo not drawn) [Example 11-3, [3-(4-Methoxy-2-methyl-phenyl)-2,5-dimethyl-pyrazolo[1,5-a]pyrimidin-7-yl]-[1-(3-methyl-[1,2,4]oxadiazol-5-yl)-2-phenyl-ethyl]-amine], the Ki under setting [1] was less than 100 nM.

Turning to `CCC(Nc1cc(C)nc2c(-c3ccc(OC)cc3C)c(C)nn12)c1nc(C(C)C)no1` (stereo not drawn) [Example 11-4, [1-(3-Isopropyl-[1,2,4]oxadiazol-5-yl)-propyl]-[3-(4-methoxy-2-methyl-phenyl)-2,5-dimethyl-pyrazolo[1,5-a]pyrimidin-7-yl]-amine], the Ki under setting [1] is less than 100 nM.

For `CCCC(Nc1cc(C)nc2c(-c3ccc(OC)cc3C)c(C)nn12)c1nc(C)no1` (stereo not drawn) [Example 11-5, [3-(4-Methoxy-2-methyl-phenyl)-2,5-dimethyl-pyrazolo[1,5-a]pyrimidin-7-yl]-[1-(3-methyl-[1,2,4]oxadiazol-5-yl)-butyl]-amine], under setting [1], the Ki is less than 100 nM.

In the case of `COc1ccc(-c2c(C)nn3c(NCc4nc(C)no4)cc(C)nc23)c(C)c1` [Example 11-6, [3-(4-Methoxy-2-methyl-phenyl)-2,5-dimethyl-pyrazolo[1,5-a]pyrimidin-7-yl]-(3-methyl-[1,2,4]oxadiazol-5-ylmethyl)-amine], the Ki is less than 100 nM.

`COc1ccc(-c2c(C)nn3c(N[C@H](C)Cc4nc(C5CC5)no4)cc(C)nc23)c(C)c1` [Example 11-9, [2-(3-Cyclopropyl-[1,2,4]oxadiazol-5-yl)-(R)-1-methyl-ethyl]-[3-(4-methoxy-2-methyl-phenyl)-2,5-dimethyl-pyrazolo[1,5-a]pyrimidin-7-yl]-amine]: the inhibitory constant (Ki) under setting [1] is less than 100 nM.

On to `COc1ccc(-c2c(C)nn3c(N[C@H](C)Cc4nc(C)no4)cc(C)nc23)c(C)c1` [Example 11-10, [3-(4-Methoxy-2-methyl-phenyl)-2,5-dimethyl-pyrazolo[1,5-a]pyrimidin-7-yl]-[(R)-1-methyl-2-(3-methyl-[1,2,4]oxadiazol-5-yl)-ethyl]-amine], for which the Ki was less than 100 nM.

Take `CCC(Nc1cc(C)nc2c(-c3ccc(OC)cc3C)c(C)nn12)c1nc(C(F)(F)F)no1` (stereo not drawn) [Example 11-11, [3-(4-Methoxy-2-methyl-phenyl)-2,5-dimethyl-pyrazolo[1,5-a]pyrimidin-7-yl]-[1-(3-trifluoromethyl-[1,2,4]oxadiazol-5-yl)-propyl]-amine]: the Ki under setting [1] is less than 100 nM.

For `CCc1noc(C[C@@H](C)Nc2cc(C)nc3c(-c4ccc(OC)cc4C)c(C)nn23)n1` [Example 11-17, [2-(3-Ethyl-[1,2,4]oxadiazol-5-yl)-(R)-1-methyl-ethyl]-[3-(4-methoxy-2-methyl-phenyl)-2,5-dimethyl-pyrazolo[1,5-a]pyrimidin-7-yl]-amine], the inhibition constant Ki under setting [1] was less than 100 nM.

For `Cc1cc(N[C@H](CC(C)C)c2nc(C)no2)n2nc(C)c(-c3cnc(N(C)C)cc3C)c2n1` [Example 11-18, [3-(6-Dimethylamino-4-methyl-pyridin-3-yl)-2,5-dimethyl-pyrazolo[1,5-a]pyrimidin-7-yl]-[3-methyl-(R)-1-(3-methyl-[1,2,4]oxadiazol-5-yl)-butyl]-amine], under setting [1], the Ki is less than 100 nM.

In turn, `CCC(Nc1cc(C)nc2c(-c3ccc(OC)cc3OC)c(C)nn12)c1nc(C)no1` (stereo not drawn) [Example 11-20, [3-(2,4-Dimethoxy-phenyl)-2,5-dimethyl-pyrazolo[1,5-a]pyrimidin-7-yl]-[1-(3-methyl-[1,2,4]oxadiazol-5-yl)-propyl]-amine] displayed a Ki of less than 100 nM.

As to `COc1ccc(-c2c(C)nn3c(NC(CC(C)C)c4nc(C)no4)cc(C)nc23)c(OC)c1` (stereo not drawn) [Example 11-23, [3-(2,4-Dimethoxy-phenyl)-2,5-dimethyl-pyrazolo[1,5-a]pyrimidin-7-yl]-[3-methyl-1-(3-methyl-[1,2,4]oxadiazol-5-yl)-butyl]-amine], the Ki under setting [1] was less than 100 nM.

In turn, `COc1ccc(-c2c(C)nn3c(NC(C)Cc4nc(C)no4)cc(C)nc23)c(C)c1` (stereo not drawn) [Example 12-1, [3-(4-Methoxy-2-methyl-phenyl)-2,5-dimethyl-pyrazolo[1,5-a]pyrimidin-7-yl]-[1-methyl-2-(3-methyl-[1,2,4]oxadiazol-5-yl)-ethyl]-amine] registered a Ki of less than 100 nM.

With `COc1ccc(-c2c(C)nn3c(N(Cc4ccccc4)Cc4nc(C)no4)cc(C)nc23)c(C)c1` [Example 12-2, Benzyl-[3-(4-methoxy-2-methyl-phenyl)-2,5-dimethyl-pyrazolo[1,5-a]pyrimidin-7-yl]-(3-methyl-[1,2,4]oxadiazol-5-ylmethyl)-amine], the Ki under setting [1] was less than 100 nM.

As to `COc1ccc(-c2c(C)nn3c(NC(Cc4nc(C)no4)C(F)(F)F)cc(C)nc23)c(C)c1` (stereo not drawn) [Example 12-3, [3-(4-Methoxy-2-methyl-phenyl)-2,5-dimethyl-pyrazolo[1,5-a]pyrimidin-7-yl]-[2,2,2-trifluoro-1-(3-methyl-[1,2,4]oxadiazol-5-ylmethyl)-ethyl]-amine], under setting [1], the Ki is less than 100 nM.

Regarding `COc1ccc(-c2c(C)nn3c(NC(C)Cc4nc(C5CC5)no4)cc(C)nc23)c(C)c1` (stereo not drawn) [Example 12-4, [2-(3-Cyclopropyl-[1,2,4]oxadiazol-5-yl)-1-methyl-ethyl]-[3-(4-methoxy-2-methyl-phenyl)-2,5-dimethyl-pyrazolo[1,5-a]pyrimidin-7-yl]-amine], under setting [1], the Ki is less than 100 nM.

On to `COc1ccc(-c2c(C)nn3c(NC(C)Cc4nc(C(C)C)no4)cc(C)nc23)c(C)c1` (stereo not drawn) [Example 12-5, [2-(3-Isopropyl-[1,2,4]oxadiazol-5-yl)-1-methyl-ethyl]-[3-(4-methoxy-2-methyl-phenyl)-2,5-dimethyl-pyrazolo[1,5-a]pyrimidin-7-yl]-amine], for which the Ki under setting [1] was less than 100 nM.

For `CCC(Cc1nc(C)no1)Nc1cc(C)nc2c(-c3ccc(OC)cc3C)c(C)nn12` (stereo not drawn) [Example 12-9, [3-(4-Methoxy-2-methyl-phenyl)-2,5-dimethyl-pyrazolo[1,5-a]pyrimidin-7-yl]-[1-(3-methyl-[1,2,4]oxadiazol-5-ylmethyl)-propyl]-amine], under setting [1], the Ki was less than 100 nM.

Regarding `CCC(Cc1nc(C2CC2)no1)Nc1cc(C)nc2c(-c3ccc(OC)cc3OC)c(C)nn12` (stereo not drawn) [Example 12-10, [1-(3-Cyclopropyl-[1,2,4]oxadiazol-5-ylmethyl)-propyl]-[3-(2,4-dimethoxy-phenyl)-2,5-dimethyl-pyrazolo[1,5-a]pyrimidin-7-yl]-amine], under setting [1], the Ki was less than 100 nM.

Take `CCC(Cc1nc(C)no1)Nc1cc(C)nc2c(-c3ccc(OC)cc3OC)c(C)nn12` (stereo not drawn) [Example 12-11, [3-(2,4-Dimethoxy-phenyl)-2,5-dimethyl-pyrazolo[1,5-a]pyrimidin-7-yl]-[1-(3-methyl-[1,2,4]oxadiazol-5-ylmethyl)-propyl]-amine]: the Ki under setting [1] was less than 100 nM.

As to `CCC[C@H](Nc1cc(C)nc2c(-c3ccc(OC)cc3C)c(C)nn12)c1nc(C)no1` [Example 13-1, [3-(4-Methoxy-2-methyl-phenyl)-2,5-dimethyl-pyrazolo[1,5-a]pyrimidin-7-yl]-[(S)-1-(3-methyl-[1,2,4]oxadiazol-5-yl)-butyl]-amine], under setting [1], the inhibition constant Ki was less than 100 nM.

Regarding `COc1ccc(-c2c(C)nn3c(N[C@@H](Cc4nc(C)no4)C(F)(F)F)cc(C)nc23)c(C)c1` [Example 13-2, [3-(4-Methoxy-2-methyl-phenyl)-2,5-dimethyl-pyrazolo[1,5-a]pyrimidin-7-yl]-[2,2,2-trifluoro-(S)-1-(3-methyl-[1,2,4]oxadiazol-5-ylmethyl)-ethyl]-amine], the Ki under setting [1] is less than 100 nM.

On to `COc1ccc(-c2c(C)nn3c(NC(C)Cc4nc(C(F)(F)F)no4)cc(C)nc23)c(C)c1` (stereo not drawn) [Example 13-3, [3-(4-Methoxy-2-methyl-phenyl)-2,5-dimethyl-pyrazolo[1,5-a]pyrimidin-7-yl]-[1-methyl-2-(3-trifluoromethyl-[1,2,4]oxadiazol-5-yl)-ethyl]-amine], for which the Ki under setting [1] is less than 100 nM.

Regarding `COc1ccc(-c2c(C)nn3c(N[C@@H](Cc4nc(C)no4)C(F)(F)F)cc(C)nc23)c(Cl)c1` [Example 13-4, [3-(2-Chloro-4-methoxy-phenyl)-2,5-dimethyl-pyrazolo[1,5-a]pyrimidin-7-yl]-[2,2,2-trifluoro-(S)-1-(3-methyl-[1,2,4]oxadiazol-5-ylmethyl)-ethyl]-amine], the inhibition constant (Ki) under setting [1] is less than 100 nM.

As usually defined, the Ki is a dissociation constant, usually derived from enzyme kinetics or from competition with a known ligand.

Values taken from patent US7879862B2, “Pyrazolo[1,5-alpha]pyrimidinyl derivatives useful as corticotropin-releasing factor (CRF) receptor antagonists” (SmithKline Beecham (Cork) Limited, priority 2004, dated 2011).
